Results from patent US20200190101A1, “Composition Containing Novel Glutamic Acid Derivative And Block Copolymer, And Use Thereof” (Nippon Kayaku Kabushiki Kaisha, priority 2015, published 2020).

Tests used:
[1] = tested on: γ-glutamyl transpeptidase (GGT); assay: γ-Glutamyl transpeptidase (GGT) enzyme recognition test; type: biochemical; conditions: 2 mM PBS solution + 2 U/mL GGT solution, 37° C.; for Residual ratio of unchanged drug: HPLC
Procedure: To 0.150 mL of this doxorubicin-bonded glutamic acid derivative (prodrug) PBS solution, 0.150 mL of a 2 U/mL GGT solution obtained by dissolving GGT (0.22 mg, 8 U/mg) (Sigma-Aldrich Company) in PBS (0.880 mL) was added, and the mixture was allowed to react at 37° C.
The reaction liquid was analyzed by HPLC, and thus the residual ratio of the doxorubicin-bonded glutamic acid derivative (prodrug) and the production ratio of doxorubicin were determined.
To 0.100 mL of the doxorubicin-bonded glutamic acid derivative PBS solution, 0.100 mL of a 2 U/mL GGT solution obtained by dissolving GGT (0.38 mg, 8 U/mg) (Sigma-Aldrich Company) in PBS (1.520 mL) was added, and the mixture was allowed to react at 37° C. […]

[2] = Test on pharmacokinetics of Example 1 (blood plasma); type: in vivo, mice; conditions: mouse, iv, 10 mg/kg in terms of DXR i.v., read-out: AUC0-6 hr. Unchanged drug (DXR prodrug)
Procedure: At time points of 5 minutes, 1 hour, 3 hours, and 6 hours after administration, blood plasma was collected under ether anesthesia.

For `COc1cccc2c1C(=O)c1c(O)c3c(c(O)c1C2=O)C[C@@](O)(C(=O)CO)CC3OC1CC(NC(=O)OCc2ccc(NC(=O)CCC(N)C(=O)O)cc2)C(O)C(C)O1` (stereo partly drawn) [Synthesis Example 1, (((4-((S)-4-amino-4-carboxybutanamide)benzyl)oxy)carbonyl)doxorubicin], the Doxorubicin production rate ([1]; reaction time 0 hr) was 0%, the “Residual ratio of unchanged drug” value ([1]; reaction time 0 hr) was 100% and the Doxorubicin production rate ([1]; reaction time 1 hr) was 49%. For the same compound, the “Residual ratio of unchanged drug” value ([1]; reaction time 1 hr) was 39%, the Doxorubicin production rate ([1]; reaction time 6.5 hr) was 98% and the “Residual ratio of unchanged drug” value ([1]; reaction time 6.5 hr) was 1%. It also gave an AUC(0-t) [2] of 6.24 µg·h/mL.
